Data reported in the supplement of paper PMC11628255, “Interference of metal ions on the bioluminescent signal of firefly, Renilla, and NanoLuc luciferases in high-throughput screening assays” (Frontiers in Chemistry, 2024).

Legend:
Experiment in all cases: normalised percent inhibition of luminescence (vs positive and negative controls); higher = stronger inhibition
[1] = test system: NanoLuc luciferase (NLuc)
Experimental: (§1)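 Concentration-response (>=11 concentrations) of metal salts on purified FLuc, NLuc or RLuc luminescence in screening (SC) or 100 mM HEPES (H) buffer; salt pre-incubated with enzyme 10 min at RT, read 10 min after substrate. Normalised percent inhibition vs plate positive (PTC-124, isradipine, BTS) and DMSO negative controls; triplicate wells.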

[2] = test system: Renilla luciferase (RLuc)
Experimental: as §1

[3] = test system: firefly luciferase (FLuc)
Experimental: as §1

O=[N+]([O-])[O-].O=[N+]([O-])[O-].[Cd+2] [cadmium nitrate]
normalised percent inhibition [%]
Conditions	[1]	[2]	[3]
metal salt concentration 0.0001 mM, 100 mM HEPES buffer	-0.809	-40.7	-14
metal salt concentration 0.00025 mM, 100 mM HEPES buffer	-0.623	-15.8	-6.16
metal salt concentration 0.0005 mM, 100 mM HEPES buffer	-3.63	-51.3	6.48
metal salt concentration 0.001 mM, 100 mM HEPES buffer	-0.485	-29.6	33.8
metal salt concentration 0.002 mM, screening conditions buffer	4.83	-8.95	–
metal salt concentration 0.005 mM, screening conditions buffer	6.73	-5.21	–
metal salt concentration 0.01 mM, screening conditions buffer	0.612	-13.5	–
metal salt concentration 0.02 mM, screening conditions buffer	-0.781	-3.71	–
metal salt concentration 0.025 mM, 100 mM HEPES buffer	-1.09	-16	95.9
metal salt concentration 0.05 mM, 100 mM HEPES buffer	4.79	-20.9	99.08
metal salt concentration 0.05 mM, screening conditions buffer	17.7	-1.96	–
metal salt concentration 0.1 mM, 100 mM HEPES buffer	13	18	99.41
metal salt concentration 0.1 mM, screening conditions buffer	7.22	-1.09	–
metal salt concentration 0.2 mM, screening conditions buffer	20.6	-5.06	–
metal salt concentration 0.5 mM, 100 mM HEPES buffer	18.6	47.1	100.3
metal salt concentration 0.5 mM, screening conditions buffer	30.7	39.6	–
metal salt concentration 1 mM, 100 mM HEPES buffer	24.8	95.1	100.3
metal salt concentration 1 mM, screening conditions buffer	56.2	68.6	–
metal salt concentration 2.5 mM, 100 mM HEPES buffer	20.6	104	100.3
metal salt concentration 2.5 mM, screening conditions buffer	93.1	79.4	–
metal salt concentration 5 mM, 100 mM HEPES buffer	26.5	105	99.3
metal salt concentration 5 mM, screening conditions buffer	113	93.4	–

O=[N+]([O-])[O-].O=[N+]([O-])[O-].[Pb+2] [lead(II) nitrate]
normalised percent inhibition [%]
Conditions	[1]	[2]	[3]
metal salt concentration 0.0001 mM, 100 mM HEPES buffer	–	–	-33.9
metal salt concentration 0.00025 mM, 100 mM HEPES buffer	–	–	-19.7
metal salt concentration 0.0005 mM, 100 mM HEPES buffer	–	–	-15.9
metal salt concentration 0.001 mM, 100 mM HEPES buffer	–	–	-1.03
metal salt concentration 0.002 mM, screening conditions buffer	-1.02	-20.9	–
metal salt concentration 0.005 mM, screening conditions buffer	-3.52	-16.2	–
metal salt concentration 0.01 mM, screening conditions buffer	-2.27	-2.6	–
metal salt concentration 0.02 mM, screening conditions buffer	-3.22	-5.61	–
metal salt concentration 0.025 mM, 100 mM HEPES buffer	–	–	88.9
metal salt concentration 0.05 mM, 100 mM HEPES buffer	–	–	94.75
metal salt concentration 0.05 mM, screening conditions buffer	-4.15	-11.8	–
metal salt concentration 0.1 mM, 100 mM HEPES buffer	–	–	96.7
metal salt concentration 0.1 mM, screening conditions buffer	-7.45	-5.46	–
metal salt concentration 0.2 mM, screening conditions buffer	0.428	-6.41	–
metal salt concentration 0.5 mM, 100 mM HEPES buffer	–	–	100.1
metal salt concentration 0.5 mM, screening conditions buffer	15.7	-3.99	–
metal salt concentration 1 mM, 100 mM HEPES buffer	–	–	100.4
metal salt concentration 1 mM, screening conditions buffer	11.5	2.9	–
metal salt concentration 2.5 mM, 100 mM HEPES buffer	–	–	100.5
metal salt concentration 2.5 mM, screening conditions buffer	52	53.3	–
metal salt concentration 5 mM, 100 mM HEPES buffer	–	–	99.63
metal salt concentration 5 mM, screening conditions buffer	129	94.9	–

O=[N+]([O-])[O-].O=[N+]([O-])[O-].O=[N+]([O-])[O-].[Ga+3] [gallium(III) nitrate]
normalised percent inhibition [%]
Conditions	100 mM HEPES buffer	screening conditions buffer
[1], metal salt concentration 0.002 mM	–	3.99
[1], metal salt concentration 0.005 mM	–	6.69
[1], metal salt concentration 0.01 mM	–	2.43
[1], metal salt concentration 0.02 mM	–	4.43
[1], metal salt concentration 0.05 mM	–	6.6
[1], metal salt concentration 0.1 mM	–	7.81
[1], metal salt concentration 0.2 mM	–	8.25
[1], metal salt concentration 0.5 mM	–	12.8
[1], metal salt concentration 1 mM	–	35
[1], metal salt concentration 2.5 mM	–	89.2
[1], metal salt concentration 5 mM	–	120
[2], metal salt concentration 0.002 mM	–	-6.33
[2], metal salt concentration 0.005 mM	–	-7.44
[2], metal salt concentration 0.01 mM	–	-4.58
[2], metal salt concentration 0.02 mM	–	-6.17
[2], metal salt concentration 0.05 mM	–	-6.25
[2], metal salt concentration 0.1 mM	–	-7.99
[2], metal salt concentration 0.2 mM	–	-8.55
[2], metal salt concentration 0.5 mM	–	-5.45
[2], metal salt concentration 1 mM	–	-8.55
[2], metal salt concentration 2.5 mM	–	-0.965
[2], metal salt concentration 5 mM	–	71.8
[3], metal salt concentration 0.0001 mM	-32.2	19.5
[3], metal salt concentration 0.00025 mM	-34.5	-10.2
[3], metal salt concentration 0.0005 mM	-31.8	10
[3], metal salt concentration 0.001 mM	-39.5	-11.4
[3], metal salt concentration 0.01 mM	27.3	–
[3], metal salt concentration 0.025 mM	90.2	-13.5
[3], metal salt concentration 0.05 mM	98.3	–
[3], metal salt concentration 0.1 mM	99.28	–
[3], metal salt concentration 0.5 mM	99.8	–
[3], metal salt concentration 1 mM	98.9	–
[3], metal salt concentration 2.5 mM	99.5	–
[3], metal salt concentration 5 mM	100.3	–
